Our source for the viability and Activity values is ChEMBL document CHEMBL4229570, “Pyrrolo[2,1-c][1,4] benzodiazepine-3,11-diones protect SHSY-5Y cells from Cd-induced apoptosis involving suppression of endoplasmic reticulum stress” (Bioorg Med Chem, 2018).

Activity calls are given as the source filed them. No cut-off for these calls is given here.

Series [1] relates to SH-SY5Y. Briefly: Neuroprotective activity against CdCl2-induced toxicity in human SH-SY5Y cells assessed as cell viability at 25 uM preincubated for 2 hrs followed by CdCl2 challenge and measured after 24 hrs by CCK8 assay (reference value: 46.2 +/- 1.7%). Type of series: functional. To be noted: read-out: Activity.
The test system of series [2] is SH-SY5Y. Briefly: Induction of apoptosis in human SH-SY5Y cells at 25 uM after 24 hrs by annexin V/propidium iodide staining-based flow cytometric analysis relative to control. Type of series: cell-based. On the technique in general: A flow cytometer gives signals particle by particle.
The subject of series [3] is SH-SY5Y. Briefly: Neuroprotective activity against CdCl2-induced apoptosis in human SH-SY5Y cells assessed as apoptosis rate at 25 uM preincubated for 2 hrs followed by CdCl2 challenge and measured after 24 hrs by annexin V/propidium iodide staining-based flow cytometric analysis (reference value: 73.2%). Type of series: functional.
Series [4] deals with SH-SY5Y. Briefly: Neuroprotective activity against CdCl2-induced endoplasmic reticulum stress-mediated apoptosis in human SH-SY5Y cells assessed as downregulation of GRP78 protein expression at 25 uM preincubated for 2 hrs followed by CdCl2 challenge and measured after 24 hrs by Western blot analysis. Type of series: functional, cell-based.
Series [5] deals with SH-SY5Y. Briefly: Neuroprotective activity against CdCl2-induced endoplasmic reticulum stress-mediated apoptosis in human SH-SY5Y cells assessed as downregulation of CHOP protein expression at 25 uM preincubated for 2 hrs followed by CdCl2 challenge and measured after 24 hrs by Western blot analysis. Type of series: functional, cell-based. On the technique in general: A western blot detects proteins with antibodies after separation by electrophoresis.

The subject of series [6] is SH-SY5Y. Briefly: Neuroprotective activity against CdCl2-induced endoplasmic reticulum stress-mediated apoptosis in human SH-SY5Y cells assessed as downregulation of cleaved caspase-3 protein expression at 25 uM preincubated for 2 hrs followed by CdCl2 challenge and measured after 24 hrs by Western blot analysis. Type of series: functional, cell-based.
Series [7] concerns SH-SY5Y. Briefly: Neuroprotective activity against CdCl2-induced endoplasmic reticulum stress-mediated apoptosis in human SH-SY5Y cells assessed as downregulation of cleaved caspase-12 protein expression at 25 uM preincubated for 2 hrs followed by CdCl2 challenge and measured after 24 hrs by Western blot analysis. Type of series: functional, cell-based.

Regarding `O=C1[C@@H]2CCC(=O)N2Cc2ccccc2N1CCCCN1CCN(c2ccccn2)CC1`, the viability at 25 µM in the series on SH-SY5Y [1] turned out to be 66.2%.
Same read-out and setting: next, `COc1cc2c(cc1OCc1ccccc1)CN1C(=O)CC[C@@H]1C(=O)N2`: 60.4%; `O=C1Nc2ccc(Cl)cc2CN2C(=O)CC[C@H]12`: 56.2%.
Still for that read-out and setting: next, `O=C1Nc2ccc(Cl)cc2CN2C(=O)CC[C@@H]12`: 61.4%.
Regarding `O=C1[C@@H]2CCC(=O)N2Cc2cc(Br)ccc2N1CCCCN1CCN(c2ccccn2)CC1`, in the series with SH-SY5Y [1], the viability at 25 µM was found to be 62.4%.
On the same count and under the same terms, next, `O=C1Nc2ccc(Br)cc2CN2C(=O)CC[C@@H]12`: 66.1%; `O=C1[C@@H]2CCC(=O)N2Cc2ccccc2N1CCCN1CCN(c2ncccn2)CC1`: 51.3%.
On the same count and under the same terms, as for `Cc1ccc(-c2ccc3c(c2)CN2C(=O)CC[C@H]2C(=O)N3)cc1`, the figure is 33.9%; as for `O=C1[C@@H]2CCC(=O)N2Cc2ccccc2N1CCCN1CCN(c2ccccn2)CC1`, 56.7%.
In the case of `O=C1Nc2cc3c(cc2CN2C(=O)CC[C@@H]12)OCO3`, in the series with SH-SY5Y [1], the viability at 25 µM came out at 59.2%.
Same read-out and setting: as for `O=C1[C@@H]2CCC(=O)N2Cc2ccccc2N1CCCCCN1CCN(c2ccccn2)CC1`, the figure is 59.2%.
In the case of `O=C1Nc2ccc(Br)cc2CN2C(=O)CC[C@H]12`, in the series with SH-SY5Y [1], the viability at 25 µM worked out at 60.4%.
On the same count and under the same terms, next, `O=C1[C@@H]2CCC(=O)N2Cc2cc(Br)ccc2N1CCCCN1CCN(c2ncccn2)CC1`: 63.1%; `O=C1Nc2ccccc2CN2C(=O)CC[C@H]12`: 48.4%; `COc1cc2c(cc1O)CN1C(=O)CC[C@@H]1C(=O)N2`: 56.8%.
Same read-out and setting: as for `COc1cc2c(cc1OCc1ccccc1)CN1C(=O)CC[C@H]1C(=O)N2`, the figure is 66.2%; as for `COc1cc2c(cc1O)CN1C(=O)CC[C@H]1C(=O)N2`, 55.7%; as for `COc1cc2c(cc1OCc1ccccc1)CN1C(=O)CC[C@H]1C(=O)N2CCCCN1CCN(c2ncccn2)CC1`, 62.2%.
Still for that read-out and setting: as for `O=C1[C@@H]2CCC(=O)N2Cc2ccccc2N1CCCCCN1CCN(c2ncccn2)CC1`, the figure is 51.4%; as for `O=C1Nc2ccccc2CN2C(=O)CC[C@@H]12`, 52.2%.
Take `Cc1ccc(-c2ccc3c(c2)CN2C(=O)CC[C@@H]2C(=O)N3)cc1`: in the series on SH-SY5Y [1], the viability at 25 µM came out at 36.2%.
`COc1cc2c(cc1OCc1ccccc1)CN1C(=O)CC[C@H]1C(=O)N2CCCCN1CCN(c2ccccn2)CC1`: the viability at 25 µM in the series on SH-SY5Y [1] was determined as 68.6%. Further, the figures for the Activity in the series on SH-SY5Y [2] and in the series on SH-SY5Y [3] were 4.2 to 5% and 18.7%, respectively. Further, the result with SH-SY5Y [4], in the series with SH-SY5Y [5], with SH-SY5Y [6] and in the series with SH-SY5Y [7] was Active.
Turning to `O=C1Nc2cc3c(cc2CN2C(=O)CC[C@H]12)OCO3`, in the series with SH-SY5Y [1], the viability at 25 µM turned out to be 56.6%.
The same measure, in the same setting: as for `Cc1ccccc1-c1ccc2c(c1)CN1C(=O)CC[C@@H]1C(=O)N2`, the figure is 42.3%; as for `O=C1[C@@H]2CCC(=O)N2Cc2ccccc2N1CCCCN1CCN(c2ncccn2)CC1`, 59.2%; as for `Cc1ccccc1-c1ccc2c(c1)CN1C(=O)CC[C@H]1C(=O)N2`, 39.8%.
